# Reference: patent publication US20230264009A1, “DISINFECTING CAP KIT FOR LUER ACCESS DEVICES” (SterileCare Inc., priority 2022, published 2023)
# Legend:
# [1] = system: S. epidermidis SK9; experiment: MIC, micro broth dilution; assay type: cell-based, Staphylococcus epidermidis; details: alone, 24 h
# Procedure: (§1) An assay was made using a minimum inhibitory concentration (MIC) and minimum bactericidal concentration (MBC) and minimum fungicidal concentration (MFC) determination. The MIC was determined by the micro broth dilution method in 96-well plates. Serial two-fold dilutions of tetrasodium EDTA (from 2% to 0.015%), ethanol (from 50% to 0.1%) and chlorhexidine HCl (from 100 µg/mL to 0.025 µg/mL) were prepared in MH broth with a final volume of 90 µL per well. A 10 µL containing 1 × 10^5 bacterial cells or 2 × 10^3 fungal cells were added to each well. The inoculated plates were covered with a lid, sealed with Parafilm, and incubated for 24 h at 37° C. with slight rocking on a tilting platform shaker. After incubation, the optical density at 600 nm (OD 600 ) of the cultures in each well was measured using an xMark™ Microplate Absorbance Spectrophotometer (Bio-Rad). […] MBCs and MFCs were determined by transferring 100 µL from each well with no apparent growth onto appropriate agar plates, followed by incubation for 24 h at 37° C.
# [2] = system: MRSA ON184; experiment: MBC/MFC determination; assay type: cell-based, Staphylococcus aureus; details: alone
# Procedure: as §1
# [3] = system: Staphylococcus aureus ON89; experiment: MBC/MFC determination; assay type: cell-based; details: alone; S. aureus ON89
# Procedure: as §1
# [4] = system: Candida albicans SK4b; experiment: MBC/MFC determination; assay type: cell-based; details: alone; C. albicans SK4b
# Procedure: as §1
# [5] = system: Stenotrophomonas maltophilia ON17; experiment: MBC/MFC determination; assay type: cell-based; details: alone; S. maltophilia ON17
# Procedure: as §1
# [6] = system: MRSA ON184 biofilm; experiment: MBEC Assay, 48-h biofilm, 24 h exposure; assay type: cell-based, Staphylococcus aureus
# Procedure: A biofilm cultivation cell composition was provided. This fifth composition was created using an MBEC Assay® biofilm inoculator, consisting of a polystyrene lid with 96 downward-protruding pegs and a corresponding base used to grow biofilms. A standardized inoculum was diluted in an appropriate biofilm growth medium to achieve a viable cell count of 1.5 × 10^6 CFU/mL of bacterial cells or […] CFU/mL of fungal cells. Then, 150 µL of this inoculum was transferred into each appropriate well, and the peg lids were inserted into the microtiter plates. The plates were sealed with Parafilm and were incubated at optimum temperature for 48 h with slight rocking for bacteria and shaking at 200 rpm for fungal strains. After incubation, the peg lid was removed from the base and rinsed twice with sterile phosphate-buffered saline (PBS) for 2 min to remove loosely attached non-sessile cells. Before the antimicrobial challenge, the pegs in column 1 (n = 8) were considered the biofilm growth control; these pegs were removed from the lids, placed into 200 µL of recovery medium, and analyzed for starting biofilm cell numbers as described below. […] MBEC values were determined as the minimum concentration of antimicrobials that yielded a viable cell count at or lower than the 125 CFU/mL detection limit.
# [7] = system: E. coli SK2; experiment: Checkerboard titration, FMCI; assay type: cell-based, Escherichia coli
# Procedure: as §1
# (§2) A fourth composition and solution included tetrasodium EDTA with ethanol or chlorhexidine HCl. This fourth composition and solution were created using checkerboard titration methods using micro broth dilution in 96-well microtiter plates. The concentrations of antimicrobials used were based on previously determined MIC values. Briefly, 200 µL of two-fold dilutions of tetrasodium EDTA and ethanol or chlorhexidine HCl were prepared in MH or MH II broth with standardized cell suspension. […] Microtiter plates were incubated at 37° C. for 24 h, and the results were analyzed. Each test was performed in duplicate and included a growth control without adding any antimicrobials.
# [8] = system: S. epidermidis SK9; experiment: Checkerboard titration, FICI; assay type: cell-based, Staphylococcus epidermidis
# Procedure: as §2
# [9] = system: Pseudomonas aeruginosa SK1; experiment: Checkerboard titration, FMCI; assay type: cell-based; details: P. aeruginosa SK1
# Procedure: as §1, §2
# [10] = system: Staphylococcus aureus ON89; experiment: Checkerboard titration, FMCI; assay type: cell-based; details: S. aureus ON89
# Procedure: as §1, §2
# [11] = system: Staphylococcus epidermidis ON170; experiment: Checkerboard titration, FMCI; assay type: cell-based; details: S. epidermidis ON170
# Procedure: as §1, §2
# [12] = system: Serratia marcescens SK2; experiment: Checkerboard titration, FMCI; assay type: cell-based; details: S. marcescens SK2
# Procedure: as §1, §2
# [13] = system: Escherichia coli ON29; experiment: Checkerboard titration, FMCI; assay type: cell-based; details: E. coli ON29
# Procedure: as §1, §2
# [14] = system: Proteus mirabilis ON153; experiment: Checkerboard titration, FMCI; assay type: cell-based; details: P. mirabilis ON153
# Procedure: as §1, §2
# [15] = system: Candida albicans SK4b; experiment: Checkerboard titration, FMCI; assay type: cell-based; details: C. albicans SK4b
# Procedure: as §1, §2
# [16] = system: Stenotrophomonas maltophilia ON17; experiment: Checkerboard titration, FMCI; assay type: cell-based; details: S. maltophilia ON17
# Procedure: as §1, §2
# [17] = system: S. epidermidis SK9; experiment: MBC/MFC determination; assay type: cell-based, Staphylococcus epidermidis; details: alone
# Procedure: as §1
# [18] = system: Staphylococcus epidermidis SK9 biofilm; experiment: FBEC index, checkerboard dilution on biofilms; assay type: cell-based; details: S. epidermidis SK9 biofilm
# Procedure: (§3) In step (4), microtiter plates are incubated at 37° C. for 24 h. then (6), after incubation, the bacterial and fungal cells were dislodged from the pegs into the recovery medium described above.
# (§4) Three 10-µL aliquots, for a total of 30 µL from each well of recovery medium, were spotted on MH agar plates and incubated for 24 h at 37° C. […] The FBEC determination is a modification of the FICI.
# [19] = system: MRSA ON184 biofilm; experiment: FBEC index, checkerboard dilution on biofilms; assay type: cell-based, Staphylococcus aureus
# Procedure: as §3, §4
# [20] = tetrasodium EDTA + chlorhexidine HCl
structure (smiles),measurement,setting,value
"O=C([O-])CN(CCN(CC(=O)[O-])CC(=O)[O-])CC(=O)[O-].[Na+].[Na+].[Na+].[Na+] [EDTA, tetrasodium EDTA]",MIC,[1],0.063 % w/v
same,MBC/MFC,[2],2 % w/v
same,MBC/MFC,[3],1 % w/v
same,MBC/MFC,[4],1 % w/v
same,MBC/MFC,[5],1 % w/v
same,MBEC,[6],2 % w/v
same,Concentration in combination giving FMCI,[7]; [20],0.015 % w/v
same,Concentration in combination giving FMCI,[7]; tetrasodium EDTA + ethanol,0.25 % w/v
same,Concentration in combination giving FICI,[8]; [20],0.015 % w/v
same,Concentration in combination giving FICI,[8]; tetrasodium EDTA + ethanol,0.015 % w/v
same,Concentration in combination giving FMCI,[9]; [20],0.031 % w/v
same,Concentration in combination giving FMCI,[9]; tetrasodium EDTA + ethanol,0.031 % w/v
same,Concentration in combination giving FMCI,[10]; [20],0.008 % w/v
same,Concentration in combination giving FMCI,[10]; tetrasodium EDTA + ethanol,0.25 % w/v
same,Concentration in combination giving FMCI,[11]; [20],0.25 % w/v
same,Concentration in combination giving FMCI,[11]; tetrasodium EDTA + ethanol,0.031 % w/v
same,Concentration in combination giving FMCI,[12]; [20],0.125 % w/v
same,Concentration in combination giving FMCI,[12]; tetrasodium EDTA + ethanol,0.25 % w/v
same,Concentration in combination giving FMCI,[13]; [20],0.008 % w/v
same,Concentration in combination giving FMCI,[13]; tetrasodium EDTA + ethanol,0.25 % w/v
same,Concentration in combination giving FMCI,[14]; [20],0.125 % w/v
same,Concentration in combination giving FMCI,[14]; tetrasodium EDTA + ethanol,0.063 % w/v
same,Concentration in combination giving FMCI,[15]; [20],0.125 % w/v
same,Concentration in combination giving FMCI,[15]; tetrasodium EDTA + ethanol,0.25 % w/v
same,Concentration in combination giving FMCI,[16]; [20],0.031 % w/v
same,Concentration in combination giving FMCI,[16]; tetrasodium EDTA + ethanol,0.125 % w/v
same,MBC/MFC,[17],0.5 % w/v
same,FBEC (concentration in combination),[18]; [20],0.125 % w/v
same,FBEC (concentration in combination),[18]; tetrasodium EDTA + ethanol,0.031 % w/v
same,FBEC (concentration in combination),[19]; [20],0.031 % w/v
same,FBEC (concentration in combination),[19]; tetrasodium EDTA + ethanol,0.063 % w/v
